Measurements from patent publication US20080206447A1, “ORGANIC-ELECTROLUMINESCENCE-MATERIAL-CONTAINING SOLUTION, METHOD FOR FORMING ORGANIC ELECTROLUMINESCENCE THIN FILM AND ORGANIC ELECTROLUMINESCENCE DEVICE” (Idemitsu Kosan Co., Ltd., priority 2007, published 2008).

Columns and labels:
Type in all cases: physicochemical
[1] = Solubility in 4-isopropylbiphenyl at 0.5 wt % by visual check; design: key to Solubility: A: solution that contained no insoluble element; B: solution that contained insoluble element(s); details: for Solubility in 4-isopropylbiphenyl (in words): 0.5 wt %; for Solubility: added to 4-isopropylbiphenyl at 0.5 wt %, visual check
Text: The results are shown in Table 2, where solution that contained no insoluble element is rated as “A” while solution that contained insoluble element(s) is rated as “B”.

Viscosity of the solvent = details: neat solvent, 22 degrees C
Procedure: 100 mg of a compound A represented by the following formula was put into a sample bottle, and a solvent was dropped thereinto while stirring until the compound A was completely dissolved. The solubility of the compound A in the solvent was calculated from an amount of the dropped solvent. The viscosity of the solvent was measured at the temperature of 22 degrees C.

[2] = Solvent solubility of para-substituted naphthacene compound; details: solvent not stated

Solubility [1] | Compound | Viscosity (Viscosity of the solvent) | also measured
B | c1cc(-c2ccc3ccccc3c2)cc(-c2c3ccccc3c(-c3cccc4ccccc34)c3ccccc23)c1 [Compound F] | – | Solubility in 4-isopropylbiphenyl (in words) [1]: low solubility
B | c1ccc(-c2c3ccccc3c(-c3cccc(-c4cccc(-c5c6ccccc6c(-c6ccccc6)c6ccccc56)c4)c3)c3ccccc23)cc1 [Compound I] | – | Solubility in 4-isopropylbiphenyl (in words) [1]: low solubility
B | c1ccc(-c2ccc(-c3c4ccccc4c(-c4ccc(-c5ccccc5)cc4)c4cc5ccccc5cc34)cc2)cc1 [Compound M] | – | Solubility in 4-isopropylbiphenyl (in words) [1]: low solubility
B | c1ccc(-c2c3ccccc3c(-c3ccccc3)c3c(-c4ccccc4)c4ccccc4c(-c4ccccc4)c23)cc1 [Compound N] | – | Solubility in 4-isopropylbiphenyl (in words) [1]: lower solubility than the compounds J, K
A | c1ccc(-c2ccc(-c3ccccc3)c(-c3ccc(-c4cc(-c5ccccc5)ccc4-c4ccccc4)c4cc5cc6ccccc6cc5cc34)c2)cc1 [Compound J] | – | –
A | c1ccc(-c2cc(-c3ccccc3)c(-c3c4ccccc4c(-c4ccccc4)c4cc5ccccc5cc34)c(-c3ccccc3)c2)cc1 [Compound K] | – | –
B | c1ccc(-c2ccc(-c3c4ccccc4c(-c4ccc(-c5ccccc5)cc4-c4ccccc4)c4cc5ccccc5cc34)c(-c3ccccc3)c2)cc1 [Compound L] | – | Solubility in 4-isopropylbiphenyl (in words) [1]: low solubility
B | c1ccc(-c2ccc(-c3c4ccccc4c(-c4ccccc4)c4ccccc34)cc2)cc1 [Compound H] | – | Solubility in 4-isopropylbiphenyl (in words) [1]: low solubility

Further lines, the compound ahead of its results:

Compound | Solubility [1] | Viscosity (Viscosity of the solvent) | also measured
c1ccc(-c2cc(-c3ccc4ccccc4c3)cc(-c3c4ccccc4c(-c4ccc5ccccc5c4)c4ccccc34)c2)cc1 [Compound E] | A | – | –
CCCCCCCCCCCCc1ccccc1 [dodecylbenzene] | – | 4.5 cP | –
CC(C)(C)c1ccccc1 [t-butylbenzene] | – | 1.2 cP | –
c1cc(-c2ccc(-c3ccc4ccccc4c3)cc2)cc(-c2c3ccccc3c(-c3ccc(-c4cccc5ccccc45)cc3)c3ccccc23)c1 [Compound B] | A | – | –
CC(C)c1ccc(-c2ccccc2)cc1 [4-isopropylbiphenyl] | – | 6.9 cP | –
c1cc(-c2ccc3ccccc3c2)cc(-c2c3ccccc3c(-c3ccc4cc(-c5ccc6ccccc6c5)ccc4c3)c3ccccc23)c1 [Compound G] | B | – | Solubility in 4-isopropylbiphenyl (in words) [1]: low solubility
Cc1ccccc1 [toluene] | – | 0.65 cP | –
c1ccc2c(c1)CCCC2 [tetralin] | – | 2.3 cP | –
c1ccc(C2CCCCC2)cc1 [cyclohexyl benzene] | – | 2.6 cP | –
c1ccc2cc(-c3ccc4cc(-c5c6ccccc6c(-c6ccc(-c7cccc8ccccc78)cc6)c6ccccc56)ccc4c3)ccc2c1 [Compound D] | A | – | –
Cc1ccc(Cc2ccc(C)c(C)c2)cc1C [1,1-bis(3,4-dimethylphenyl)methane] | – | 33.6 cP | –
Cc1cc(C)cc(C)c1 [mesitylene] | – | 0.76 cP | –
CCc1cccc(-c2ccccc2)c1 [3-ethylbiphenyl] | – | 5.6 cP | –
xylene | – | 0.76 cP | –
CCC(C)c1ccccc1 (centres unmarked) [s-butylbenzene] | – | 1.0 cP | –
c1ccc2cc(-c3ccc(-c4c5ccccc5c(-c5ccc(-c6cccc7ccccc67)cc5)c5ccccc45)cc3)ccc2c1 [Compound C] | A | – | –
c1ccc(-c2ccc(-c3c4ccccc4c(-c4ccc(-c5ccccc5)cc4-c4ccccc4)c4cc5ccccc5cc34)c(-c3ccccc3)c2)cc1 [drawing 5] | – | – | Solubility [2]: ≤ 0.1 wt %
